Entries after “also recorded” stand apart in the source; their conditions may differ.

The subject of one assay is CTD110.6 antibody. Briefly: CTD110.6 antibody binding on glycopeptide microarrays.
Assay [1] relates to Wheat Germ Agglutinin (WGA). Briefly: Lectin binding on microarray. The note with it: control glycans on the GP1 array; TSM binding buffer pH 7.4, 1 hr, room temperature.

On to `CC(=O)N[C@H]1C(O)O[C@H](CO)[C@@H](O)[C@@H]1O` (stereo partly drawn) [GlcNAc], for which the “effect of free GlcNAc on CTD110.6 binding (hapten competition)” value in the assay on CTD110.6 antibody (GP1 array, 20 mM GlcNAc) was “completely abolished”.
Turning to `CC(=O)N[C@H]1C(O)O[C@H](CO)[C@H](O)[C@@H]1O` (stereo partly drawn) [GalNAc], the “effect of free GalNAc on CTD110.6 non-specific binding (hapten)” value in the assay on CTD110.6 antibody (GP2 array printed at 100 μM, 20 mM GalNAc) is “specificity can be restored; also recorded: can be prevented”.
For the compound chitin, the “binding of WGA to control glycans” value in assay [1] is on record as “exhibited lectin binding with WGA”.

These data come from paper PMC7556346 (Cell chemical biology, 2020).
